The target in this test is T1, Tyrosine-protein phosphatase non-receptor type 11 (Homo sapiens, UniProt Q06124).
T1 sequence (Q06124 whole entry): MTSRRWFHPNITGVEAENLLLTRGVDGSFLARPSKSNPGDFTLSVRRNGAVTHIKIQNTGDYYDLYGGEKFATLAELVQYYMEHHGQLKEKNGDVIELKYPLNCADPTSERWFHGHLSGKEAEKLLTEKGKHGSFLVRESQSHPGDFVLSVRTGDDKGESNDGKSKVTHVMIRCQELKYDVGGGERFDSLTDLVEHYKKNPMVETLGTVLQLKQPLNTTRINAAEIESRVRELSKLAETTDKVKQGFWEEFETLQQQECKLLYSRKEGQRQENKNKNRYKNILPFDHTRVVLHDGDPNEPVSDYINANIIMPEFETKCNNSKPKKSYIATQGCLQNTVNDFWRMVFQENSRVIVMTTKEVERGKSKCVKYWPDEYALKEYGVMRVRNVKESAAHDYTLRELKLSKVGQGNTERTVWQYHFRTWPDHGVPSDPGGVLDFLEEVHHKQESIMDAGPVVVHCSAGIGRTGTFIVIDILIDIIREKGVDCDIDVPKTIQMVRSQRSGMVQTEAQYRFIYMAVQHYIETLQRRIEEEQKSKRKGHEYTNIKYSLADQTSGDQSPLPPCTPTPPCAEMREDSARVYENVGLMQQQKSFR
In words: SPH2 Allosteric Inhibition Assay and Binding.

A value given as a limit tells only on which side of the number the result lay.

By IC50 is commonly meant the concentration that inhibits the measured activity by half. `CC1(CN)CCN(c2cnc3c(N4CCCc5c4cccc5S(=O)(=O)F)n[nH]c3n2)CC1` [US12138263, Compound 5A] had an IC50 of less than 1 µM.

These data come from BindingDB's records for patent US12138263 (Relay Therapeutics, 2024).
